From US20240190824A1, “INHIBITORS OF TREK (TWIK RELATED K+ CHANNELS) CHANNEL FUNCTION” (ONO PHARMACEUTICAL CO., LTD., priority 2019, published 2024) come the findings set out here.

Chain of human TREK-1 (O95069 whole entry): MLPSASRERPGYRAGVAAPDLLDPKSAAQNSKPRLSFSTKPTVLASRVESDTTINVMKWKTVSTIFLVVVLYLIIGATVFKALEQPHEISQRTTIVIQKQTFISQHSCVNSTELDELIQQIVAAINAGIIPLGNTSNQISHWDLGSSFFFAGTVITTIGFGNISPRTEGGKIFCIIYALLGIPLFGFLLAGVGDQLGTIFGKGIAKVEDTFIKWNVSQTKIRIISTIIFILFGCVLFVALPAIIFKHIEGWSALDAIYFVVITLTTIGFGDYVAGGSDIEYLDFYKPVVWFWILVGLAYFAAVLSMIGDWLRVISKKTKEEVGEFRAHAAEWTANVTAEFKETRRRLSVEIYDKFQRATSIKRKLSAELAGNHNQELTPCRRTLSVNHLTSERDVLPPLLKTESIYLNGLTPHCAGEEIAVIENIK

This test addresses human TREK-1 (Homo sapiens (Human), UniProt O95069). Kind of test: TREK-1 Thallium (Tl+) flux assay. It counts as cell-based. The settings on record: CHO-K1 cells stably expressing human TREK-1.
The IC50 is the concentration at which inhibition is half-maximal. Consider `Cc1cc(C#Cc2ccccc2)cnc1NC(=O)c1cc(NC(=O)C2COCCO2)ccc1Cl` (stereo not drawn) [Compound 31, N-[4-chloro-3-[[3-methyl-5-(2-phenylethynyl)-2-pyridyl]carbamoyl]phenyl]-1,4-dioxane-2-carboxamide], for which the concentration for half-maximal inhibition (IC50) was determined as 0.26 µM.

On to `Cc1cc(OCc2ccccc2)cc(C)c1NC(=O)c1cc(NC(=O)OC(C)(C)C)ccc1Cl` [Compound 88, tert-butyl (3-((4-(benzyloxy)-2,6-dimethylphenyl)carbamoyl)-4-chlorophenyl)carbamate], for which half-maximal inhibition (IC50) required 0.36 µM.

`Cc1cc(C#Cc2ccccc2)cnc1NC(=O)c1cc(OC[C@@H]2COCCO2)ccc1Cl` [Compound 23, 2-chloro-5-[[(2S)-1,4-dioxan-2-yl]methoxy]-N-[3-methyl-5-(2-phenylethynyl)-2-pyridyl]benzamide] yielded an IC50 of 0.21 µM. With `Cc1cc(C#Cc2ccccc2)cnc1NC(=O)c1cc(-c2cnn(C3COC3)c2)ccc1Cl` [Compound 58, 2-chloro-N-[3-methyl-5-(2-phenylethynyl)-2-pyridyl]-5-[1-(oxetan-3-yl)pyrazol-4-yl]benzamide] the figure was 0.13 µM; with `Cc1cc(C#Cc2ccccc2)cnc1NC(=O)c1cc(OCC2CCOCC2)ccc1Cl` [Compound 20, 2-chloro-N-[3-methyl-5-(2-phenylethynyl)-2-pyridyl]-5-(tetrahydropyran-4-ylmethoxy)benzamide], 0.09 µM; with `Cc1cc(C#Cc2ccccc2)cnc1NC(=O)c1cc(NC(=O)OC(C)(C)C)ccc1Cl` [Compound 28, tert-butyl N-[4-chloro-3-[[3-methyl-5-(2-phenylethynyl)-2-pyridyl]carbamoyl]phenyl]carbamate], 0.14 µM. With `Cc1cc(C#Cc2cccc(F)c2)cnc1NC(=O)c1cc(C(=O)N2CC(C)(O)C2)ccc1Cl` [Compound 18, 2-chloro-N-[5-[2-(3-fluorophenyl)ethynyl]-3-methyl-2-pyridyl]-5-(3-hydroxy-3-methyl-azetidine-1-carbonyl)benzamide] the figure was 0.24 µM; with `Cc1cc(C#Cc2ccccc2)cnc1NC(=O)c1cc(-c2noc(C3CCOC3)n2)ccc1Cl` (stereo not drawn) [Compound 19, 2-chloro-N-[3-methyl-5-(2-phenylethynyl)-2-pyridyl]-5-(5-tetrahydrofuran-3-yl-1,2,4-oxadiazol-3-yl)benzamide], 0.05 µM. To `Cc1cc(C#Cc2cccnc2)cnc1NC(=O)c1cc(NC(=O)OC(C)(C)C)ccc1Cl` [Compound 41, tert-butyl N-[4-chloro-3-[[3-methyl-5-[2-(3-pyridyl)ethynyl]-2-pyridyl]carbamoyl]phenyl]carbamate] belongs 0.53 µM; to `CC(=O)Nc1ccc(Cl)c(C(=O)Nc2ccc(OCc3ccccc3)cc2C)c1` [Compound 91], 1.03 µM; to `CC(C)(C)OC(=O)Nc1ccc(Cl)c(C(=O)Nc2ncc(-c3cnn(-c4ccccc4)c3)cc2F)c1` [Compound 97, tert-butyl N-[4-chloro-3-[[3-fluoro-5-(1-phenylpyrazol-4-yl)-2-pyridyl]carbamoyl]phenyl]carbamate], 0.29 µM.

Consider `Cc1cc(C#Cc2cccc(F)c2)cnc1NC(=O)c1cc(NC(=O)C2COCCO2)ccc1Cl` (stereo not drawn) [Compound 13, N-[4-chloro-3-[[5-[2-(3-fluorophenyl)ethynyl]-3-methyl-2-pyridyl]carbamoyl]phenyl]-1,4-dioxane-2-carboxamide], for which 0.28 µM corresponded to half-maximal inhibition (IC50). With `Cc1cc(C#Cc2ccccc2F)cnc1NC(=O)c1cc(NC(=O)OC(C)(C)C)ccc1Cl` [Compound 42, tert-butyl N-[4-chloro-3-[[5-[2-(2-fluorophenyl)ethynyl]-3-methyl-2-pyridyl]carbamoyl]phenyl]carbamate] the figure was 0.54 µM.

In turn, `Cc1cc(C#Cc2ccccc2)cnc1NC(=O)c1cc(NC(=O)C2CC2)ccc1Cl` [Compound 9, 2-chloro-5-(cyclopropanecarbonylamino)-N-[3-methyl-5-(2-phenylethynyl)-2-pyridyl]benzamide] registered an IC50 of 0.18 µM. To `Cc1cc(C#Cc2ccccc2)nc(C)c1NC(=O)c1cc(NC(=O)OC(C)(C)C)ccc1Cl` [Compound 48, tert-butyl N-[4-chloro-3-[[2,4-dimethyl-6-(2-phenylethynyl)-3-pyridyl]carbamoyl]phenyl]carbamate] belongs 0.95 µM; to `Cc1cc(C#Cc2ccccc2)cnc1NC(=O)c1cc(NC(=O)[C@H]2C[C@@H]2C)ccc1Cl` [Compound 27, 2-chloro-5-[[(1S,2S)-2-methylcyclopropanecarbonyl]amino]-N-[3-methyl-5-(2-phenylethynyl)-2-pyridyl]benzamide], 0.1 µM. To `Cc1cc(C#Cc2cccc(F)c2)nc(C)c1NC(=O)c1cc(NC(=O)[C@H]2C[C@@H]2C)ccc1Cl` [Compound 49, 2-chloro-N-[6-[2-(3-fluorophenyl)ethynyl]-2,4-dimethyl-3-pyridyl]-5-[[(1S,2S)-2-methylcyclopropanecarbonyl]amino] benzamide] belongs 1.09 µM.

In the case of `Cc1cc(C#Cc2ccccc2)cnc1NC(=O)c1cc(C(=O)N2CC(C)(C)C2)ccc1Cl` [Compound 60, 2-chloro-5-(3,3-dimethylazetidine-1-carbonyl)-N-[3-methyl-5-(2-phenylethynyl)-2-pyridyl]benzamide], the IC50 came to 0.14 µM. With `Cc1cc(C#Cc2ccccc2)cnc1NC(=O)c1cc(NC(=O)[C@@H]2C[C@H]2C)ccc1Cl` [Compound 36, 2-chloro-5-[[(1R,2R)-2-methylcyclopropanecarbonyl]amino]-N-[3-methyl-5-(2-phenylethynyl)-2-pyridyl]benzamide] the figure was 0.42 µM; with `O=C(Nc1ncc(C#Cc2ccccc2)cc1F)c1cc(NC(=O)C2COCCO2)ccc1Cl` (stereo not drawn) [Compound 10, N-[4-chloro-3-[[3-fluoro-5-(2-phenylethynyl)-2-pyridyl]carbamoyl]phenyl]-1,4-dioxane-2-carboxamide], 0.2 µM. With `Cc1cc(C#Cc2ccccc2)cnc1NC(=O)c1cc(-c2nc(C3CC3)no2)ccc1Cl` [Compound 57, 2-chloro-5-(3-cyclopropyl-1,2,4-oxadiazol-5-yl)-N-[3-methyl-5-(2-phenylethynyl)-2-pyridyl]benzamide] the figure was 0.13 µM; with `Cc1cc(C#Cc2cnccn2)cnc1NC(=O)c1cc(NC(=O)OC(C)(C)C)ccc1Cl` [Compound 39, tert-butyl N-[4-chloro-3-[[3-methyl-5-(2-pyrazin-2-ylethynyl)-2-pyridyl]carbamoyl]phenyl]carbamate], 0.47 µM. The molecule `Cc1cc(C#Cc2ccccc2)cnc1N1Cc2ccc(NC(=O)OC(C)(C)C)cc2C1=O` [Compound 44, tert-butyl N-[2-[3-methyl-5-(2-phenylethynyl)-2-pyridyl]-3-oxo-isoindolin-5-yl]carbamate] gave an IC50 of 0.58 µM. For the molecule `Cc1cc(COc2ccccc2)ccc1NC(=O)c1cc(NC(=O)OC(C)(C)C)ccc1Cl` [Compound 26, tert-butyl (4-chloro-3-((2-methyl-4-(phenoxymethyl)phenyl)carbamoyl)phenyl)carbamate], the half-inhibitory concentration (IC50) worked out at 0.67 µM.

`COCCOc1ccc(Cl)c(C(=O)Nc2ncc(C#Cc3ccccc3)cc2C)c1` [Compound 24, 2-chloro-5-(2-methoxyethoxy)-N-[3-methyl-5-(2-phenylethynyl)-2-pyridyl]benzamide] had an IC50 of 0.23 µM. With `Cc1cc(OCc2ccccc2)ccc1NC(=O)c1cc(NC(=O)OC(C)(C)C)ccc1Cl` [Compound 25, tert-butyl (3-((4-(benzyloxy)-2-methylphenyl)carbamoyl)-4-chlorophenyl)carbamate] the figure was 0.46 µM; with `Cc1cc(C#Cc2ccccc2)cnc1N1Cc2ccc(OCC3COCCO3)cc2C1=O` (stereo not drawn) [Compound 81, 6-(1,4-dioxan-2-ylmethoxy)-2-[3-methyl-5-(2-phenylethynyl)-2-pyridyl]isoindolin-1-one], 0.36 µM. With `O=C(Nc1ncc(C#Cc2ccc(F)cc2)cc1F)c1cc(NC(=O)C2CC2)ccc1Cl` [Compound 7, 2-chloro-5-(cyclopropanecarbonylamino)-N-[3-fluoro-5-[2-(4-fluorophenyl)ethynyl]-2-pyridyl]benzamide] the figure was 0.15 µM. With `Cc1cc(C)n(C(=O)c2ccc(Cl)c(C(=O)Nc3ncc(C#Cc4ccccc4)cc3C)c2)n1` [Compound 72, 2-chloro-5-(3,5-dimethylpyrazole-1-carbonyl)-N-[3-methyl-5-(2-phenylethynyl)-2-pyridyl]benzamide], the concentration for half-maximal inhibition (IC50) was 0.36 µM. With `CCn1ccc(-c2ccc(Cl)c(C(=O)Nc3ncc(C#Cc4ccccc4)cc3C)c2)n1` [Compound 64, 2-chloro-5-(1-ethylpyrazol-3-yl)-N-[3-methyl-5-(2-phenylethynyl)-2-pyridyl]benzamide] the figure was 0.2 µM.

Molecule `Cc1cc(C#Cc2ccc(F)cc2)cnc1NC(=O)c1cc(NC(=O)C2COCCO2)ccc1Cl` (stereo not drawn) [Compound 14, N-[4-chloro-3-[[5-[2-(4-fluorophenyl)ethynyl]-3-methyl-2-pyridyl]carbamoyl]phenyl]-1,4-dioxane-2-carboxamide] showed an IC50 of 0.23 µM. To `Cc1nc(C)c(-c2ccc(Cl)c(C(=O)Nc3ncc(C#Cc4ccccc4)cc3F)c2)s1` [Compound 67, 2-chloro-5-(2,4-dimethylthiazol-5-yl)-N-[3-fluoro-5-(2-phenylethynyl)-2-pyridyl]benzamide] belongs 0.21 µM; to `Cc1cc(OCc2ccccc2)cnc1NC(=O)c1cc(NC(=O)OC(C)(C)C)ccc1Cl` [Compound 87, tert-butyl N-[3-[(5-benzyloxy-3-methyl-2-pyridyl)carbamoyl]-4-chloro-phenyl]carbamate], 0.56 µM. To `Cc1cc(C#Cc2ccccc2)cnc1NC(=O)c1cc(-c2ccnn2C)ccc1Cl` [Compound 61, 2-chloro-N-[3-methyl-5-(2-phenylethynyl)-2-pyridyl]-5-(2-methylpyrazol-3-yl)benzamide] belongs 0.16 µM. To `Cc1cc(C#Cc2ccccn2)cnc1NC(=O)c1cc(NC(=O)OC(C)(C)C)ccc1Cl` [Compound 15, tert-butyl N-[4-chloro-3-[[3-methyl-5-[2-(2-pyridyl)ethynyl]-2-pyridyl]carbamoyl]phenyl]carbamate] belongs 0.37 µM; to `Cc1cc(C#Cc2ccccc2)cnc1NC(=O)c1cc(-c2cnn(C3CCOC3)c2)ccc1Cl` (stereo not drawn) [Compound 66, 2-chloro-N-(3-methyl-5-(phenylethynyl)pyridin-2-yl)-5-(1-(tetrahydrofuran-3-yl)-1H-pyrazol-4-yl)benzamide], 0.22 µM.
